Test system: CD163+ TAMs
Type: in vivo, mouse
Description: To deplete CD163^+ TAM we generated knock-in mice expressing iCre recombinase from a Cd163-IRES-iCre transcript (CD163-iCre) and crossed them to Csflr-LSL-DTR mice that after cre-mediated deletion of LSL, have DTR expression under the control of the Csflr promotor. A single injection of 4 ng/kg diphteria toxin (DT) specifically depleted close to 50% of CD163+ TAMs after 24 hrs (data not shown). No effect, was observed on the remaining myeloid compartment except for a small increase in recruited monocytes (data not shown). Next, we attempted to achieve sustained depletion of CD163+ TAMs by repeated DT injections.

diphteria toxin [DT]
side effects of sustained depletion of CD163+ macrophages (repeated DT injections): severe side-effect
tumor growth (repeated DT injections, CD163-iCre+/-, Csf1r-LSL-DTR+/- mice compared to Csf1r-LSL-DTR wildtype mice): significantly reduced tumor growth
depletion of CD163+ TAMs (single injection of 4 ng/kg DT, after 24 hrs): ~50%
effect on the remaining myeloid compartment (single injection of 4 ng/kg DT, except for a small increase in recruited monocytes): No effect
